In US20160022668A1, “APPLICATION OF CINCHONA ALKALOID DERIVATIVES AS CYTOTOXIC COMPOUNDS” (ADAM MICKIEWICZ UNIVERSITY, priority 2014, published 2016):
Values joined by “and” are separate entries in the source; they are usually repeats but may differ in a detail not shown here. Equal values may be shown once. Read-outs that look alike come from different tables or passages of the source.

Tests used:
A549 (lung cancer) = assay: Sulphorhodamine B cytotoxicity test, A549 line; assay type: cell-based; conditions: for IC50 / Cytotoxic activity class, A549 (lung cancer) / Cytotoxic activity, IC50, A549 (lung cancer): 72 hours incubation, sulphorhodamine B
Description: (§1) Cytotoxic activity tests were performed using the following cancer cell lines: MCF-7 (breast cancer), HeLa (cervical cancer) A549 (pulmonary cancer) and KB (nasopharynx cancer) obtained from ECACC (European Collection of Cell Cultures). Cytotoxicity tests were carried out using a standard procedure with sulphorhodamine B. They involved incubation of the cancer cell lines in the logarithmic growth phase for 72 hours with the compound tested and, subsequently, spectrophotometric determination of the degree of cell growth inhibition using adsorption of a dye (sulphorhodamine B) which binds cellular proteins. The determination was carried out according to a procedure reported in: Vichai, V., Kirtikara, K. […] Solutions of the test compounds were prepared in DMSO in the following concentration range: 0.05; 0.1; 0.5; 1; 5; 10; 50; 100 μM. The cells of the lines tested were treated with the solutions of the test compounds in a laminar-flow chamber which ensured sterile working conditions according to the following procedure: the first three wells were used as a control: they contained 20 μL of DMSO only; successive solutions of the test compound were added to subsequent wells (20 μL), starting with the lowest concentration (three wells for each concentration level). Subsequently, the plates were placed in an incubator for 72 hours. After the end of incubation, the adhered cells were fixed by adding 500 μL of cold (4° C.) 50% trichloroacetic acid (TCA) and incubated at 4° C. for 1 hour. Subsequently, each well was rinsed with sterile water and dried. The operation was repeated five times. The fixed cells were stained for 30 minutes by adding 500 μL of 0.4% of a dye solution (sulphorhodamine B) dissolved in 1% acetic acid. […] Subsequently, the plates were dried in air for approx. 5 minutes. Any […] dye was dissolved by adding 1500 μL of […] Tris-base buffer (trishydroxymethylaminomethane) to each well and shaken using an orbital shaker for 5 minutes. […] Depending on the type of the cell line, the following growth media were used: • the MCF-7 line was grown in Dulbecco's Modified Eagle's Medium (DME) from Sigma (cat. no. […] R8758). […] Program Procedure. Instruction and technical documentation change notice, instruction 14. Screening data summary interpretation and outline of current screening. Edition NCI NIH, Bethesda Rev., 1980, 6, 31-62).

HeLa (cervical cancer) = assay: Sulphorhodamine B cytotoxicity test, HeLa line; assay type: cell-based; conditions: for IC50 / Cytotoxic activity class, HeLa (cervical cancer) / Cytotoxic activity, IC50, HeLa (cervical cancer): 72 hours incubation, sulphorhodamine B
Description: as §1

[1] = test system: MCF-7 line (breast cancer); assay: Sulphorhodamine B cytotoxicity test, MCF-7 line; assay type: cell-based; conditions: for IC50 / Cytotoxic activity class, MCF-7 line (breast cancer) / Cytotoxic activity, IC50, MCF-7 line (breast cancer): 72 hours incubation, sulphorhodamine B
Description: as §1

KB (nasopharynx cancer) = assay: Sulphorhodamine B cytotoxicity test, KB line; assay type: cell-based; conditions: for IC50 / Cytotoxic activity, IC50, KB (nasopharynx cancer): 72 hours incubation, sulphorhodamine B
Description: Cytotoxic activity tests were performed using the following cancer cell lines: MCF-7 (breast cancer), HeLa (cervical cancer) A549 (pulmonary cancer) and KB (nasopharynx cancer) obtained from ECACC (European Collection of Cell Cultures).
Cytotoxicity tests were carried out using a standard procedure with sulphorhodamine B. They involved incubation of the cancer cell lines in the logarithmic growth phase for 72 hours with the compound tested and, subsequently, spectrophotometric determination of the degree of cell growth inhibition using adsorption of a dye (sulphorhodamine B) which binds cellular proteins. The determination was carried out according to a procedure reported in: Vichai, V., Kirtikara, K. Nature Protocols, 2006, 1, 1112.
Preparation of Cells for the Experiment:
Cancerous cells of the cell line tested in the logarithmic growth phase were seeded onto 24-well plates in a quantity of 20,000 cells/2 mL of the growth medium per well and, subsequently, incubated in an incubator at 37° C., in the 5% CO2 atmosphere for 24 hours.
Preparation of Test Compound Solutions:
Solutions of the test compounds were prepared in DMSO in the following concentration range: 0.05; 0.1; 0.5; 1; 5; 10; 50; 100 μM.
The cells of the lines tested were treated with the solutions of the test compounds in a laminar-flow chamber which ensured sterile working conditions according to the following procedure: the first three wells were used as a control: they contained 20 μL of DMSO only; successive solutions of the test compound were added to subsequent wells (20 μL), starting with the lowest concentration (three wells for each concentration level). Subsequently, the plates were placed in an incubator for 72 hours.
After the end of incubation, the adhered cells were fixed by adding 500 μL of cold (4° C.) 50% trichloroacetic acid (TCA) and incubated at 4° C. for 1 hour. Subsequently, each well was rinsed with sterile water and dried. The operation was repeated five times. The fixed cells were stained for 30 minutes by adding 500 μL of 0.4% of a dye solution (sulphorhodamine B) dissolved in 1% acetic acid. Any unbound dye was removed by decanting it from the plate, and the cells were washed 4 times with 1% acetic acid. Subsequently, the plates were dried in air for approx. 5 minutes. Any […] dye was dissolved by adding 1500 μL of […] Tris-base buffer (trishydroxymethylaminomethane) to each well and shaken using an orbital shaker for 5 minutes. Subsequently, 200 μL of solution from each well was transferred to each of two wells on a new 96-well plate and absorption of the solutions was determined spectrophotometrically at a wavelength of 490-530 nm using a plate reader.
Depending on the type of the cell line, the following growth media were used: • the MCF-7 line was grown in Dulbecco's Modified Eagle's Medium (DME) from Sigma (cat. no. D5796), • the HeLa, A549 and KB lines were grown in RPMI-1640 Medium from Sigma (cat. no. R8758).
IC50 values, denoting concentration of a compound needed to obtain 50% inhibition of cell growth, were determined for all the derivatives tested.

[2] = test system: breast cancer cells (MCF-7); conditions: in vitro; Martirosyan et al. 2004; read-out: IC50, inhibition of growth and differentiation of breast cancer cells (MCF-7); cited from earlier work
[3] = Homo sapiens, A549, average of three determinations, read-out: Cytotoxic activity, IC50, A549 (lung cancer)
[4] = Homo sapiens, HeLa, average of three determinations, read-out: Cytotoxic activity, IC50, HeLa (cervical cancer)
[5] = Homo sapiens, MCF7, average of three determinations, read-out: Cytotoxic activity, IC50, MCF-7 line (breast cancer)
[6] = average of three determinations, read-out: Cytotoxic activity, IC50, KB (nasopharynx cancer)
[7] = Homo sapiens, A549, read-out: Cytotoxic activity class, A549 (lung cancer)
[8] = Homo sapiens, HeLa, read-out: Cytotoxic activity class, HeLa (cervical cancer)
[9] = Homo sapiens, MCF7, read-out: Cytotoxic activity class, MCF-7 line (breast cancer)
[10] = read-out: Cytotoxic activity class, KB (nasopharynx cancer)
[11] = average of three determinations
[12] = average of three determinations, read-out: Cytotoxic activity, IC50, A549 (lung cancer)
[13] = average of three determinations, read-out: Cytotoxic activity, IC50, HeLa (cervical cancer)
[14] = average of three determinations, read-out: Cytotoxic activity, IC50, MCF-7 line (breast cancer)

Molecule	IC50 (A549 (lung cancer); [3])	IC50 (HeLa (cervical cancer); [4])	IC50 [1, 5]	IC50 (KB (nasopharynx cancer); [6])	IC50 (A549 (lung cancer); [7]) [µg/mL]	IC50 (HeLa (cervical cancer); [8]) [µg/mL]	IC50 [1, 9] [µg/mL]	IC50 (KB (nasopharynx cancer); [10]) [µg/mL]	Cytotoxic activity class, A549 (lung cancer) (A549 (lung cancer))	Cytotoxic activity, IC50, A549 (lung cancer) (A549 (lung cancer); [11]) [µg/mL]	IC50 (A549 (lung cancer); [12]) [µM]	Cytotoxic activity class, HeLa (cervical cancer) (HeLa (cervical cancer))	Cytotoxic activity, IC50, HeLa (cervical cancer) (HeLa (cervical cancer); [11]) [µg/mL]	IC50 (HeLa (cervical cancer); [13]) [µM]	Cytotoxic activity class, MCF-7 line (breast cancer) [1]	Cytotoxic activity, IC50, MCF-7 line (breast cancer) [1, 11] [µg/mL]	IC50 [1, 14] [µM]	Cytotoxic activity, IC50, KB (nasopharynx cancer) (KB (nasopharynx cancer); [11]) [µg/mL]	also measured
C=C[C@H]1C[N@@]2CC[C@H]1C[C@@H]2[C@@H](O)c1ccnc2ccccc12 [cinchonine, reference compound]	> 50 µg/mL	> 50 µg/mL	> 50 µg/mL	> 50 µg/mL	–	–	–	–	–	–	–	–	–	–	–	–	–	–	–
O=c1[nH]c(=O)n([C@H]2C[C@H](O)[C@@H](CO)O2)cc1F [5-fluoro-2′-deoxyuridine, reference compound]	13.4 µg/mL and 54.4 µM	13 µg/mL and 52.8 µM	11.4 µg/mL and 46.3 µM	13.7 µg/mL and 55.6 µM	4 to 30	4 to 30	4 to 30	4 to 30	–	–	–	–	–	–	–	–	–	–	–
C=C[C@H]1C[N@@]2CC[C@H]1C[C@H]2[C@H](O)c1ccnc2ccc(OC)cc12 [quinine]	–	–	–	–	–	–	–	–	–	–	–	–	–	–	–	–	–	–	IC50 [2]: 40 µM
9-O-propargylcinchonidine [PCD]	–	–	–	28.6 µM	–	–	–	4 to 30	(MA) (IC50 range of 4-30 μg/mL are considered medium active (abbreviated as MA))	16.0	48.1	(MA) (IC50 range of 4-30 μg/mL are considered medium active (abbreviated as MA))	10.0	30.1	(MA) (IC50 range of 4-30 μg/mL are considered medium active (abbreviated as MA))	9.3	28	9.5	reduction in cytotoxic activity on change to the opposite configuration (8S,9R) ([1]; PCD versus PCN, general statement, not tied to one cell line): about 3 fold
O=c1[nH]cc(F)c(=O)[nH]1 [5-fluorouracil, reference compound]	21.4 µg/mL and 165 µM	21 µg/mL and 161 µM	18.2 µg/mL and 140 µM	22 µg/mL and 169 µM	4 to 30	4 to 30	4 to 30	4 to 30	–	–	–	–	–	–	–	–	–	–	–
C#CCO[C@@H](c1ccnc2ccccc12)[C@H]1C[C@@H]2CCN1C[C@@H]2C=C [PCN, 9-O-propargylcinchonine]	–	–	–	9.63 µM	–	–	–	< 4	(A) (IC50<4 μg/mL are generally assumed as active (abbreviated as A))	3.9	11.7	(A) (IC50<4 μg/mL are generally assumed as active (abbreviated as A))	3.5	10.5	(A) (IC50<4 μg/mL are generally assumed as active (abbreviated as A))	3.0	9.02	3.2	times as cytotoxic as 5FU (A549 (lung cancer); A549 line, ratio of IC50 to 5FU): more than five times; times as cytotoxic as 5FdU (A549 (lung cancer); A549 line, ratio of IC50 to 5FdU): more than three times; times as cytotoxic as 5FU (HeLa (cervical cancer); HeLa line, ratio of IC50 to 5FU): six times; times as cytotoxic as 5FdU (HeLa (cervical cancer); HeLa line, ratio of IC50 to 5FdU): 3.7 times; times as cytotoxic as 5FU ([1]; MCF-7 line, ratio of IC50 to 5FU): more than six times; times as active as 5FdU ([1]; MCF-7 line, ratio of IC50 to 5FdU): 3.8 times; times as high activity compared to 5FU (KB (nasopharynx cancer); KB line, ratio of IC50 to 5FU): 6.8 times; times as high activity compared to 5FdU (KB (nasopharynx cancer); KB line, ratio of IC50 to 5FdU): 4.3 times
